For 5 compounds, MIC results are on record in patent publication US4472579A, “Process for the preparation of quinoline carboxylic acid derivatives” (Kyorin Seiyaku Kabushiki Kaisha, priority 1980, dated 1984).

Assay in all cases: Antibacterial activity, agar dilution streak MIC
What all share (format): cell-based

In experiment [1] the test system is Staphyloccocus aureus 209P. To be noted: read-out: Minimum inhibitory concentration. As to the method: (§1) The antibacterial activities of the compounds of this invention were assayed by the standard agar dilution streak method against Gram-positive and Gram-negative bacteria [Chemothrapy, 22, 1126 (1974)].
The subject of experiment [2] is Streptococcus pyogenes IID692. To be noted: Streptococcus pyogenes IID692, Gram +; read-out: Minimum inhibitory concentration. As to the method:
as §1

Experiment [3] has as its system Escherichia coli NIHJ JC-2. To be noted: NIHJJC2, read-out: Minimum inhibitory concentration. As to the method:
as §1

In experiment [4] the test system is Pseudomonas aeruginosa VI. To be noted: Gram -, read-out: Minimum inhibitory concentration. How it is done: as §1
For a further experiment, the system named is Bacillus subtilis PCI219. To be noted: Bacillus subtilis PCI219, Gram +; read-out: Minimum inhibitory concentration. How it is done:
as §1

The subject of experiment [5] is Klebsiella pneumoniae IF03512. To be noted: Klebsiella pneumoniae IF03512, Gram -; read-out: Minimum inhibitory concentration. How it is done:
as §1

For experiment [6], the system named is Salmonella enteritidis IID604. To be noted: Salmonella enterica, read-out: Minimum inhibitory concentration. As to the method: as §1
The subject of a further experiment is S. aureus ATCC14775. To be noted: Staphylococcus aureus; S. aureus ATCC14775, Gram +; read-out: Minimum inhibitory concentration. How it is done: as §1
The subject of a further experiment is Proteus vulgaris IF03167. To be noted: Proteus vulgaris IF03167, Gram -; read-out: Minimum inhibitory concentration. How it is done: as §1
In experiment [7] the test system is Pseudo. aeruginosa IF012689. To be noted: Pseudomonas aeruginosa; Pseudo. aeruginosa IF012689, Gram -; read-out: Minimum inhibitory concentration. As to the method: as §1
The test system of experiment [8] is Diplococcus pneumoniae IID552. To be noted: Streptococcus pneumoniae; Diplococcus pneumoniae IID552, Gram +; read-out: Minimum inhibitory concentration. How it is done: as §1
The test system of another experiment is Shigella sonnei IID969. To be noted: Shigella sonnei IID969, Gram -; read-out: Minimum inhibitory concentration. As to the method:
The antibacterial activities of the compounds of this invention were assayed by the standard agar dilution streak method against Gram-positive and Gram-negative bacteria [Chemothrapy, 22, 1126 (1974)]. The result was shown in Table 1 together with a known agent, nalidixic acid.

SMILES strings stand for the structures. ≈ marks a conversion by molar mass, not a printed value. Read-outs that look alike come from different tables or passages of the source.

`CCn1cc(C(=O)O)c(=O)c2ccc(C)nc21` [NA, Nalidixic acid, reference compound]: the MIC in experiment [1] came out at 50 µg/mL (≈ 215 µM).

For the compound `CCn1cc(C(=O)O)c(=O)c2cc(F)c(N3CCNCC3)cc21` [Example 1, 1-ethyl-6-fluoro-7-(1-piperazinyl)-4-oxo-1,4-dihydroquinoline-3-carboxylicacid], the MIC in experiment [2] was 1.56 µg/mL (≈ 4.89 µM); in experiment [3], 0.1 µg/mL (≈ 0.313 µM); in experiment [4], 0.39 µg/mL (≈ 1.22 µM); in the experiment with Bacillus subtilis PCI219 it was 0.39 µg/mL (≈ 1.22 µM); in [5], 0.05 µg/mL (≈ 0.157 µM); in experiment [6] (Salmonella enteritidis IID604, Gram -), 0.2 µg/mL (≈ 0.626 µM). Moreover, the MIC with S. aureus ATCC14775 was determined as 3.13 µg/mL (≈ 9.8 µM); in the experiment on Proteus vulgaris IF03167, 0.1 µg/mL (≈ 0.313 µM); in [7] it was 1.56 µg/mL (≈ 4.89 µM); in experiment [1] (Staphyloccocus aureus 209P, Gram +), 0.78 µg/mL (≈ 2.44 µM); in experiment [8], 3.13 µg/mL (≈ 9.8 µM); with Shigella sonnei IID969, 0.1 µg/mL (≈ 0.313 µM).

For `C=Cn1cc(C(=O)O)c(=O)c2cc(F)c(N3CCN(C)CC3)cc21` [Example 9, 1-vinyl-6-fluoro-7-(4-methyl-1-piperazinyl)-4-oxo-1,4-dihydroquinoline-3-carboxylic acid], the MIC in [2] was 12.5 µg/mL (≈ 37.7 µM).

Take `C=Cn1cc(C(=O)O)c(=O)c2cc(F)c(N3CCNCC3)cc21` [Example 8, 1-vinyl-6-fluoro-7-(1-piperazinyl)-4-oxo-1,4-dihydroquinoline-3-carboxylicacid]: the MIC in experiment [2] was 12.5 µg/mL (≈ 39.4 µM).

`CCn1cc(C(=O)O)c(=O)c2cc(F)c(N3CCN(C)CC3)cc21` [Example 6, 1-ethyl-6-fluoro-7-(4-methyl-1-piperazinyl)-4-oxo-1,4-dihydroquinoline-3-carboxylic acid]: the MIC in experiment [2] was found to be 6.25 µg/mL (≈ 18.7 µM); in experiment [5] it was 0.05 µg/mL (≈ 0.15 µM); in experiment [6] it was 0.78 µg/mL (≈ 2.34 µM); in [7], 3.13 µg/mL (≈ 9.39 µM); in [8], 3.13 µg/mL (≈ 9.39 µM); with Shigella sonnei IID969 it was 0.1 µg/mL (≈ 0.3 µM).
